Results reported in the supplement of paper PMC11061612.

Legend:
Paclitaxel = compound: CC(=O)O[C@H]1C(=O)[C@@]2(C)[C@H]([C@H](OC(=O)c3ccccc3)[C@]3(O)C[C@H](OC(=O)[C@H](O)[C@@H](NC(=O)c4ccccc4)c4ccccc4)C(C)=C1C3(C)C)[C@]1(OC(C)=O)CO[C@@H]1C[C@@H]2O [Paclitaxel]; settings: max 3 µM
Method in brief: (§1)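 Following 24 hours at 37°C and 5% CO2, cancer cell lines in 1536-well plates with 7.5 μl DMEM/F12 or RPMI and 10% FBS were dosed for 72 hours, final DMSO typically being 0.2%. CellTiter-Glo 2.0 luminescence, scaled between blank-well and DMSO-well means, gave the viability readout. Dose responses were fitted to a two-parameter logistic curve with a non-linear mixed effects model, and the single-agent IC50 was derived from this fit.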

Doxorubicin = compound: COc1cccc2c1C(=O)c1c(O)c3c(c(O)c1C2=O)C[C@@](O)(C(=O)CO)C[C@@H]3O[C@H]1C[C@H](N)[C@H](O)[C@H](C)O1 [Doxorubicin]; settings: max 1 µM
Method in brief: as §1

5-Fluorouracil = compound: O=c1[nH]cc(F)c(=O)[nH]1 [5-Fluorouracil]; settings: max 20 µM
Method in brief: as §1

AZD6738 = compound: C[C@@H]1COCCN1C2=NC(=NC(=C2)C3(CC3)[S@](=N)(=O)C)C4=C5C=CNC5=NC=C4 [AZD6738]; settings: max 10 µM
Method in brief: as §1

AZD0156 = compound: CN(C)CCCOc1ccc(-c2ccc3ncc4c(c3c2)n(C2CCOCC2)c(=O)n4C)cn1 [AZD0156]; settings: max 3 µM
Method in brief: as §1

AZD5153 = compound: COc1nnc2ccc(N3CCC(c4ccc(OCCN5CCN(C)C(=O)[C@H]5C)cc4)CC3)nn12 [AZD5153]; settings: max 1 µM
Method in brief: as §1

AZD5991 = compound: Cc1c2c(nn1C)CSCc1cc(n(C)n1)CSc1cc(c3ccccc3c1)OCCCc1c(C(=O)O)n(C)c3c-2c(Cl)ccc13 [AZD5991]; settings: max 1 µM
Method in brief: as §1

Crizotinib = compound: C[C@@H](Oc1cc(-c2cnn(C3CCNCC3)c2)cnc1N)c1c(Cl)ccc(F)c1Cl [Crizotinib]; settings: max 10 µM
Method in brief: as §1

Gefitinib = compound: COc1cc2ncnc(Nc3ccc(F)c(Cl)c3)c2cc1OCCCN1CCOCC1 [Gefitinib]; settings: max 10 µM
Method in brief: as §1

Venetoclax = compound: CC1(C)CCC(CN2CCN(c3ccc(C(=O)NS(=O)(=O)c4ccc(NCC5CCOCC5)c([N+](=O)[O-])c4)c(Oc4cnc5[nH]ccc5c4)c3)CC2)=C(c2ccc(Cl)cc2)C1 [Venetoclax]; settings: max 1 µM
Method in brief: as §1

[1] = compound: O=C(Nc1ccc2[nH]nc(-c3ccncc3)c2c1)[C@@H]1CCN(CC(=O)N2CCN(c3ccc(-c4ncccn4)cc3)CC2)C1; settings: max 5 µM
Method in brief: as §1

AZD5363 = compound: C1CN(CCC1(C(=O)N[C@@H](CCO)C2=CC=C(C=C2)Cl)N)C3=NC=NC4=C3C=CN4 [AZD5363]; settings: max 10 µM
Method in brief: as §1

AZD2811 = compound: CCN(CCO)CCCOc1ccc2c(Nc3cc(CC(=O)Nc4cccc(F)c4)[nH]n3)ncnc2c1 [AZD2811]; settings: max 1 µM
Method in brief: as §1

Prexasertib = compound: COc1cccc(OCCCN)c1-c1cc(Nc2cnc(C#N)cn2)n[nH]1 [Prexasertib]; settings: max 1 µM
Method in brief: as §1

AZD7648 = compound: Cc1cc2ncnn2cc1Nc1ncc2c(n1)n(C1CCOCC1)c(=O)n2C [AZD7648]; settings: max 10 µM
Method in brief: as §1

SG3199 = compound: CC1=CN2[C@@H](C1)C=NC3=CC(=C(C=C3C2=O)OC)OCCCCCOC4=C(C=C5C(=C4)N=C[C@@H]6CC(=CN6C5=O)C)OC [SG3199]; settings: max 0.001 µM
Method in brief: as §1

Gemcitabine = compound: Nc1ccn([C@@H]2O[C@H](CO)[C@@H](O)C2(F)F)c(=O)n1 [Gemcitabine]; settings: max 0.3 µM
Method in brief: as §1

SRA737 = compound: N#Cc1cnc(Nc2cc(NC[C@H]3CNCCO3)c(C(F)(F)F)cn2)cn1 [SRA737]; settings: max 10 µM
Method in brief: as §1

AZD1390 = compound: CC(C)n1c(=O)n(C)c2cnc3cc(F)c(-c4ccc(OCCCN5CCCCC5)nc4)cc3c21 [AZD1390]; settings: max 0.3 µM
Method in brief: as §1

Etoposide = compound: COc1cc([C@@H]2c3cc4c(cc3[C@@H](O[C@@H]3O[C@@H]5CO[C@@H](C)O[C@H]5[C@H](O)[C@H]3O)[C@H]3COC(=O)[C@H]23)OCO4)cc(OC)c1O [Etoposide]; settings: max 10 µM
Method in brief: as §1

Selumetinib = compound: Cn1cnc2c(F)c(Nc3ccc(Br)cc3Cl)c(C(=O)NOCCO)cc21 [Selumetinib]; settings: max 10 µM
Method in brief: as §1

Olaparib = compound: O=C(c1cc(Cc2n[nH]c(=O)c3ccccc23)ccc1F)N1CCN(C(=O)C2CC2)CC1 [Olaparib]; settings: max 10 µM
Method in brief: as §1

AZD8186 = compound: C[C@@H](Nc1cc(F)cc(F)c1)c1cc(C(=O)N(C)C)cc2c(=O)cc(N3CCOCC3)oc12 [AZD8186]; settings: max 10 µM
Method in brief: as §1

SN-38 = compound: CCc1c2c(nc3ccc(O)cc13)-c1cc3c(c(=O)n1C2)COC(=O)[C@]3(O)CC [SN-38]; settings: max 0.3 µM
Method in brief: as §1

Dasatinib = compound: CC1=C(C(=CC=C1)Cl)NC(=O)C2=CN=C(S2)NC3=CC(=NC(=N3)C)N4CCN(CC4)CCO [Dasatinib]; settings: max 2 µM
Method in brief: as §1

MK-2206 = compound: NC1(c2ccc(-c3nc4ccn5c(=O)[nH]nc5c4cc3-c3ccccc3)cc2)CCC1 [MK-2206]; settings: max 10 µM
Method in brief: as §1

Palbociclib = compound: CC(=O)c1c(C)c2cnc(Nc3ccc(N4CCNCC4)cn3)nc2n(C2CCCC2)c1=O [Palbociclib]; settings: max 10 µM
Method in brief: as §1

Carboplatin = compound: C1CC(C1)(C(=O)[O-])C(=O)[O-].N.N.[Pt+2] [Carboplatin]; settings: max 10 µM
Method in brief: as §1

Trametinib = compound: CC(=O)Nc1cccc(-n2c(=O)n(C3CC3)c(=O)c3c(Nc4ccc(I)cc4F)n(C)c(=O)c(C)c32)c1 [Trametinib]; settings: max 1 µM
Method in brief: as §1

Savolitinib = compound: C[C@@H](c1ccc2nccn2c1)n1nnc2ncc(-c3cnn(C)c3)nc21 [Savolitinib]; settings: max 1 µM
Method in brief: as §1

Lapatinib = compound: CS(=O)(=O)CCNCc1ccc(-c2ccc3ncnc(Nc4ccc(OCc5cccc(F)c5)c(Cl)c4)c3c2)o1 [Lapatinib]; settings: max 10 µM
Method in brief: as §1

AZD1775 = compound: C=CCn1c(=O)c2cnc(Nc3ccc(N4CCN(C)CC4)cc3)nc2n1-c1cccc(C(C)(C)O)n1 [AZD1775]; settings: max 3 µM
Method in brief: as §1

Alisertib = compound: COc1cc(Nc2ncc3c(n2)-c2ccc(Cl)cc2C(c2c(F)cccc2OC)=NC3)ccc1C(=O)O [Alisertib]; settings: max 10 µM
Method in brief: as §1

Taselisib = compound: Cc1nc(-c2cn3c(n2)-c2ccc(-c4cnn(C(C)(C)C(N)=O)c4)cc2OCC3)n(C(C)C)n1 [Taselisib]; settings: max 10 µM
Method in brief: as §1

AZD4320 = compound: CN(CC[C@H](CSC1=CC=CC=C1)NC2=C(C=C(C=C2)S(=O)(=O)NC(=O)C3=CC=C(C=C3)N4CCC(CC4)[C@H](C5=CC=CC=C5C6=CC=C(C=C6)Cl)O)S(=O)(=O)C(F)(F)F)CCO [AZD4320]; settings: max 1 µM
Method in brief: as §1

Cell Line | IC50, cell viability 72 h (Paclitaxel) [nM] | IC50, cell viability 72 h (Doxorubicin) [nM] | IC50, cell viability 72 h (5-Fluorouracil) [nM] | IC50, cell viability 72 h (AZD6738) [nM] | IC50, cell viability 72 h (AZD0156) [nM] | IC50, cell viability 72 h (AZD5153) [nM] | IC50, cell viability 72 h (AZD5991) [nM] | IC50, cell viability 72 h (Crizotinib) [nM] | IC50, cell viability 72 h (Gefitinib) [nM] | IC50, cell viability 72 h (Venetoclax) [nM] | IC50, cell viability 72 h [1] [nM] | IC50, cell viability 72 h (AZD5363) [nM] | IC50, cell viability 72 h (AZD2811) [nM] | IC50, cell viability 72 h (Prexasertib) [nM] | IC50, cell viability 72 h (AZD7648) [nM] | IC50, cell viability 72 h (SG3199) [nM] | IC50, cell viability 72 h (Gemcitabine) [nM] | IC50, cell viability 72 h (SRA737) [nM] | IC50, cell viability 72 h (AZD1390) [nM] | IC50, cell viability 72 h (Etoposide) [nM] | IC50, cell viability 72 h (Selumetinib) [nM] | IC50, cell viability 72 h (Olaparib) [nM] | IC50, cell viability 72 h (AZD8186) [nM] | IC50, cell viability 72 h (SN-38) [nM] | IC50, cell viability 72 h (Dasatinib) [nM] | IC50, cell viability 72 h (MK-2206) [nM] | IC50, cell viability 72 h (Palbociclib) [nM] | IC50, cell viability 72 h (Carboplatin) [nM] | IC50, cell viability 72 h (Trametinib) [nM] | IC50, cell viability 72 h (Savolitinib) [nM] | IC50, cell viability 72 h (Lapatinib) [nM] | IC50, cell viability 72 h (AZD1775) [nM] | IC50, cell viability 72 h (Alisertib) [nM] | IC50, cell viability 72 h (Taselisib) [nM] | IC50, cell viability 72 h (AZD4320) [nM]
DOK (Oral Cavity Carcinoma) | 5.13 | > 1000 | > 20000 | > 10000 | > 3000 | 652 | > 1000 | > 10000 | > 10000 | > 1000 | 633 | 9610 | > 1000 | > 1000 | > 10000 | > 1 | > 300 | > 10000 | > 300 | > 10000 | 3660 | > 10000 | > 10000 | 169 | 165 | > 10000 | > 10000 | > 10000 | 328 | > 1000 | 5760 | 1260 | 4510 | 253 | > 1000
EW-22 (Ewing's Sarcoma) | 19.2 | 64.8 | > 20000 | 1400 | > 3000 | 982 | > 1000 | 3930 | > 10000 | 720 | > 5000 | > 10000 | 78.8 | 7.62 | > 10000 | > 1 | 6.06 | 3010 | > 300 | 1150 | > 10000 | 1730 | > 10000 | 1.31 | > 2000 | > 10000 | > 10000 | > 10000 | > 1000 | > 1000 | > 10000 | 694 | 563 | 936 | 178
FU-OV-1 (Ovarian Carcinoma) | > 3000 |  | > 20000 | > 10000 | > 3000 | 511 | > 1000 | > 10000 | > 10000 | > 1000 | 3800 | > 10000 | > 1000 | 694 | > 10000 |  | > 300 | > 10000 | > 300 | > 10000 | > 10000 | > 10000 | > 10000 | > 300 | 1480 | > 10000 | > 10000 | > 10000 |  | > 1000 | > 10000 | > 3000 | > 10000 | 1090 | > 1000
